The source of these data is US11446260B2, “Pharmaceutical composition of S-ketamine hydrochloride” (Janssen Pharmaceutica NV, priority 2013, dated 2022).

SMILES strings stand for the structures.

Assay type in all cases: cell-based
The subject of one assay is C. albicans. The assay is described as follows: Full AET Challenge Test. As to conditions: Candida albicans; summary of Examples 1 and 2.
The test system of the next assay is M. luteus. As to the kind of experiment: Full AET Challenge Test. The note with it: Micrococcus Luteus; summary of Examples 1 and 2.
The next assay deals with A. brasiliensis. The assay is described as follows: Full AET Challenge Test. The note with it: Aspergillus brasiliensis; summary of Examples 1 and 2.
The subject of a further assay is S. aureus. As to the kind of experiment: Full AET Challenge Test. The note with it: Staphylococcus aureus; summary of Examples 1 and 2.
Another assay concerns E. coli. The assay is described as follows: Full AET Challenge Test. The note with it: Escherichia coli; summary of Examples 1 and 2.
The next assay concerns S. haemolyticus. The assay is described as follows: Challenge test (Example 1). As to conditions: Staphylococcus haemolyticus; summary of Examples 1 and 2.
The subject of another assay is P. aeruginosa. As to the kind of experiment: Full AET Challenge Test. The note with it: Pseudomonas aeruginosa; summary of Examples 1 and 2.

`CN[C@]1(c2ccccc2Cl)CCCCC1=O.Cl` [S-ketamine hydrochloride, (S)-2-(2-chlorophenyl)-2-(methylamino)cyclohexanone hydrochloride]: the “antimicrobial properties (summary in words)” value with C. albicans is “strong antimicrobial properties”; with M. luteus, “strong antimicrobial properties”; with A. brasiliensis, “some inhibitory activity”; in the assay on S. aureus, “strong antimicrobial properties”; with E. coli, “strong antimicrobial properties”; in the assay on S. haemolyticus it was “strong antimicrobial properties”. Besides, the “antimicrobial properties (summary in words)” value with P. aeruginosa is “strong antimicrobial properties”.
